Reference: ChEMBL document CHEMBL3044797 (Crop Prot, 2008)
≈ marks a conversion by molar mass, not a printed value.

What was measured:
Assay type in all cases: functional, organism-based
[1] = tested on: Fusarium oxysporum; assay: Fungicidal activity against Fusarium oxysporum assessed as inhibition of mycelial growth
[2] = tested on: Phytophthora capsici; assay: Fungicidal activity against Phytophthora capsici assessed as inhibition of mycelial growth
[3] = tested on: Botrytis cinerea; assay: Fungicidal activity against Botryotinia fuckeliana assessed as inhibition of mycelial growth
[4] = tested on: Fusarium graminearum; assay: Fungicidal activity against compound-sensitive Fusarium graminearum isolate
[5] = tested on: Alternaria solani; assay: Fungicidal activity against Alternaria solani assessed as inhibition of mycelial growth
[6] = tested on: Sclerotinia sclerotiorum; assay: Fungicidal activity against Sclerotinia sclerotiorum assessed as inhibition of mycelial growth
[7] = tested on: Pseudoperonospora cubensis; assay: Fungicidal activity against Pseudoperonospora cubensis zoosporangia isolate obtained from downy mildew diseased cucumber plant assessed as reduction in mildew development measured after 7 to 10 days
[8] = tested on: Pyricularia grisea; assay: Fungicidal activity against Magnaporthe grisea assessed as inhibition of mycelial growth
[9] = tested on: Blumeria graminis; assay: Fungicidal activity against Blumeria graminis infested wheat plant in greenhouse assessed as reduction in powdery mildew formation measured after 10 days; details: 240 h
[10] = tested on: Dothiorella gregaria; assay: Fungicidal activity against Dothiorella gregaria assessed as inhibition of mycelial growth
[11] = tested on: Fusarium graminearum; assay: Fungicidal activity against Wind-type carbendazim-sensitive Fusarium graminearum isolate
[12] = tested on: Colletotrichum truncatum; assay: Fungicidal activity against Colletotrichum capsici assessed as inhibition of mycelial growth
[13] = tested on: Fusarium verticillioides; assay: Fungicidal activity against Fusarium verticillioides assessed as inhibition of mycelial growth

With `CCOC(=O)/C(C#N)=C(/N)c1ccccc1` the EC50 [1] was 3.56 µg/mL (≈ 16.5 µM), the EC50 [2] was 111 µg/mL (≈ 515 µM) and the EC50 [3] was 72.2 µg/mL (≈ 334 µM). It also gave an EC50 [4] of 0.141 µg/mL (≈ 0.652 µM), an EC50 [5] of 133 µg/mL (≈ 616 µM) and an EC50 [6] of 72.1 µg/mL (≈ 333 µM). It also gave an EC50 [7] of 12.7 µg/mL (≈ 58.9 µM), an EC50 [8] of 77.1 µg/mL (≈ 356 µM) and an EC50 [9] greater than 1000 µg/mL. It also gave an EC50 [10] of 39.7 µg/mL (≈ 184 µM), an EC50 [11] of 0.108 µg/mL (≈ 0.499 µM) and an EC50 [12] of 28.2 µg/mL (≈ 130 µM). The EC50 [13] was 0.459 µg/mL (≈ 2.12 µM).
